Legend:
Assay type in all cases: cell-based, human
DR1 cells = test: Cell death assay (PI staining), radiation-resistant cells; details: DR1 compared to astrocytes
Protocol: (§1) As with naïve cells, we determined the IC50 for DR1, DR2, […] and their SI compared to astrocytes.
(§2) Figure 8 C29 is efficient on radioresistant MB cell lines. (A) Cell death after 48 h of treatment with control (DMSO, CT) or C29 1, 2.5, or 5 µM on radiation-resistant cells (RR) and normal cells (N), n = 3. Statistics were performed using the one-way method ANOVA. * p < 0.05, ** p < 0.01, *** p < 0.001. For this figure, DR1 = D1, DR2 = D2, HR1 = H1, HR2 = H2, and C8D1A = C8. (B) Proliferation of DR1/DR2 (A) and HR1/HR2 (B) radio-resistant cells after 1 µM C29 treatment or control (DMSO), n = 3. (C) Clonogenic assay on DR1, DR2 (n = 3) and HR1, HR2 (n = 3) cells after treatment with control (DMSO) or C29 (1 µM or 2.5 µM). (D) Cell migration through the Boyden chamber of DR1 and DR2 cells specifically attracted by 200 ng/mL CXCL8. Cells were treated with control (DMSO) or C29 (1 and 2.5 µM). Results are expressed as percentage of control (n = 3). Scale = 1000 μm. Statistics were performed using Student t-test for 2 comparisons only or ANOVA test for multiple comparisons. * p < 0.05, ** p < 0.01, *** p < 0.001. […]
(§3) each month by using PlasmoTest Kit (#10L07‐MM, InvivoGen, Toulouse, France). Daoy and ONS‐76 belong to the Shh genetic subgroup, D341‐Med and HD‐MB03 to group 3.
(§4) Mouse cerebellar astrocytes C8D1A (CRL ‐2541) were purchased from the American Tissue Culture Collection ATCC. These cells were cultured in DMEM (1X) + GlutaMAX (Invitrogen) medium supplemented with 10% FBS (D. Dutscher). Cells were cultured at 37°C in a 5% CO2 incubator. […]
(§5) After 2 days, cells were treated with control (DMSO) or C29
(§6) (1, 2∙5, 5μM) for 48 hours. After 48 hours, the medium was recovered, and the adherent cells were dissociated and added to the supernatant. Cell death was detected by PE chan‐ nel using FACS Cytoflex (Beckman) immediately after labelling the cells with 1ug/ml pro‐ pidium iodide (Miltenyi Biotec). Data were presented with the percentage of cell death after subtracting the percentage of untreated and unlabelled dead cells.
(§7) Migration in Boyden chambers
(§8) The cells were deprived of serum overnight. 50000 cells were plated in triplicate in serum‐free medium into the upper compartment of pre‐wetted inserts (24‐well plate fit, translucent PET membrane, 8∙0 μ m pore size, Falcon, Thermo Fisher). Medium containing 10% serum or CXCL8 (200ng/ml, Peprotech) was added to the lower compartment. After 24 hours, migrated cells were fixed with 3% paraformaldehyde and stained with Crystal […]
Violet. […]
(§9) 5000 cells were plated in 48 multi‐well plates coated with agarose 0∙8%. […]

DR2 cells = test: as above; details: DR2 compared to astrocytes
Protocol: as §1, §2, §3, §4, §5, §6, §7, §8
Violet. […]
as §9

HR1 cells = test: as above; details: HR1 compared to astrocytes
Protocol: as §1, §2, §3, §4, §5, §6, §7, §8
Violet. […]
as §9

HR2 cells = test: as above; details: HR2 compared to astrocytes
Protocol: as §1, §2, §3, §4, §5, §6, §7, §8
Violet. […]
as §9

[1] = tested on: ERK and AKT phosphorylation in ONS-76 cells; test: Immunoblotting of p-ERK/p-AKT; details: ONS-76, 1 or 2.5 µM, 2 h or 24 h
Protocol: (§10) Figure 5 C29 inhibits signalling pathway that stimulates in cell proliferation and survival. (A–C). Daoy (A), HD-MB03 (B), and ONS-76 (C) cells were treated with C29 (1 or 2.5 μM) for 2 h (A–C) or 24 h (C), n = 3. The expression of p- ERK and p-AKT, relative to ERK and AKT, (respectively) was used to describe the relative activation of the pathways. ARD1 and HSP90 were used as loading controls. Statistics were performed using Student t-test for two comparisons only or ANOVA test for multiple comparisons. * p < 0.05, ** p < 0.01. […]
(§11) Protein extraction and immunoblotting
(§12) Cells were cultured to sub confluency and lysed in 60 mM Tris‐Cl pH 6∙8, 2% SDS, 10% glycerol, 5% β‐mercapto‐ethanol, 0∙01% bromophenol blue).
(§13) Lysates were sonicated for 25 seconds, and protein amount was determined by the Pierce™ BCA Protein Assay Kit assay (Thermo Fisher). Sample proteins were reduced by heating at 95 °C for 5 min. 30 μg of proteins were separated on 10% SDS‐polyacrylamide gels and transferred on PVDF membranes in Tris‐Glycine buffer (25 mM Tris, 192 mM glycine, pH 8∙3) + 20% ethanol (v:v). Membranes were blocked with 3% BSA, at room tem‐ perature for 1 h, then immunoblotted overnight with primary antibodies diluted in 3% BSA, at 4 °C. The following primary antibodies were used: AKT (CST, #9272S), phospho‐ […]
(§14) ARD1 (homemade polyclonal rabbit antibody). Membranes were incubated with HRP‐ conjugated secondary antibodies anti‐rabbit IgG 1/5000e (Promega), at room temperature, for 1h30. After washing, the Advansta WesternBright Quantum HRP substrate (Diagom‐ ics, Blagnac, France) was used as detection reagent.

[2] = tested on: ERK phosphorylation in Daoy cells; test: Immunoblotting of p-ERK/p-AKT; details: 1 or 2.5 µM, 2 h
Protocol: as §10, §11, §12, §13, §14

[3] = tested on: ERK phosphorylation in HD-MB03 cells; test: Immunoblotting of p-ERK/p-AKT; details: HD-MB03, 1 or 2.5 µM, 2 h
Protocol: as §10, §11, §12, §13, §14

O=C(Nc1cccc(Cl)c1)Nc1nc2ccc([N+](=O)[O-])cc2s1 [C29, 1-(3-chlorophenyl)-3-(6-nitrobenzo[d]thiazol-2-yl) urea]
Selectivity index (SI) (DR1 cells): 3.9 | Selectivity index (SI) (DR2 cells): 3.9 | Selectivity index (SI) (HR1 cells): 7.7 | Selectivity index (SI) (HR2 cells): 2.8 | AKT phosphorylation [1]: inhibited | ERK phosphorylation [1]: inhibited | ERK phosphorylation [2]: inhibited ERK phosphorylation | ERK phosphorylation [3]: inhibited ERK phosphorylation
